This passage reports IC50 results from patent US7973033B2, “Multi-cyclic cinnamide derivatives” (Eisai R&D Management Co., Ltd., priority 2006, dated 2011).

SMILES strings stand for the structures.

The subject of the test is Aβ 42 production. As to the kind of experiment: Quantification of Aβ Peptide in Culture of Neurons from Rat Fetus Brain. The format is cell-based. The conditions noted are these: Neuron, 72 h; rat primary neuronal culture (cerebral cortex, embryonic day 18 Wistar rats); medium collected three days after addition of the compound; Aβ ELISA; read-out: Effect of reducing Aβ 42 production IC50. Here is the method:
Quantification of Aβ Peptide in Culture of Neurons from Rat Fetus Brain
(1) Rat Primary Neuronal Culture
Primary neuronal cultures were prepared from the cerebral cortex of embryonic day 18 Wistar rats (Charles River Japan, Yokohama, Japan). Specifically, the embryos were aseptically removed from pregnant rats under ether anesthesia. The brain was isolated from the embryo and immersed in an ice-cold L-15 medium (Invitrogen Corp. Cat #11415-064, Carlsbad, Calif., USA, or SIGMA L1518, for example). The cerebral cortex was collected from the isolated brain under a stereoscopic microscope. The cerebral cortex fragments collected were enzymatically treated in an enzyme solution containing 0.25% trypsin (Invitrogen Corp. Cat #15050-065, Carlsbad, Calif., USA) and 0.01% DNase (Sigma D5025, St. Louis, Mo., USA) at 37° C. for 30 minutes to disperse the cells. Here, the enzymatic reaction was stopped by adding inactivated horse serum to the solution. The enzymatically treated solution was centrifuged at 1,500 rpm for five minutes to remove the supernatant. 5 to 10 ml of a medium was added to the resulting cell mass. Neurobasal medium (Invitrogen Corp. Cat #21103-049, Carlsbad, Calif., USA) supplemented with 2% B27 supplement (Invitrogen Corp. Cat #17504-044, Carlsbad, Calif., USA), 25 μM 2-mercaptoethanol (2-ME, WAKO Cat #139-06861, Osaka, Japan), 0.5 mM L-glutamine (Invitrogen Corp. Cat #25030-081, Carlsbad, Calif., USA), and Antibiotics-Antimycotics (Invitrogen Corp. Cat #15240-062, Carlsbad, Calif., USA) was used as the medium (Neurobasal/B27/2-ME). However, the above Neurobasal medium not supplemented with 2-ME (Neurobasal/B27) was used for the assay. The cells were redispersed by mild pipetting of the cell mass to which the medium was added. The cell dispersion was filtered through a 40-μm nylon mesh (Cell Strainer, Cat #35-2340, Becton Dickinson Labware, Franklin Lakes, N.J., USA) to remove the remaining cell mass, and thus a neuronal cell suspension was obtained. The neuronal cell suspension was diluted with the medium and then plated in a volume of 100 μl/well at an initial cell density of 5×10^5 cells/cm^2 in a 96-well polystyrene culture plate pre-coated with poly-L or D-lysine (Falcon Cat #35-3075, Becton Dickinson Labware, Franklin Lakes, N.J., USA coated with poly-L-lysine using the method shown below, or BIOCOAT™ cell environments Poly-D-lysine cell ware 96-well plate, Cat #35-6461, Becton Dickinson Labware, Franklin Lakes, N.J., USA). Poly-L-lysine coating was carried out as follows. 100 μg/ml of a poly-L-lysine (SIGMA P2636, St. Louis, Mo., USA) solution was aseptically prepared with a 0.15 M borate buffer (pH 8.5). 100 μl/well of the solution was added to the 96-well polystyrene culture plate and incubated at room temperature for one or more hours or at 4° C. overnight or longer. The coated 96-well polystyrene culture plate was washed with sterile water four or more times, and then dried or rinsed with, for example, sterile PBS or medium, and used for cell plating. The plated cells were cultured in the culture plate at 37° C. in 5% CO2-95% air for one day. Then, the total amount of the medium was replaced with a fresh Neurobasal™/B27/2-ME medium, and then the cells were cultured for further three days.
The drug was added to the culture plate on Day 4 of culture as follows. The total amount of the medium was removed from the wells, and 180 μl/well of Neurobasal medium not containing 2-ME and containing 2% B-27 (Neurobasal/B27) was added thereto. A solution of the test compound in dimethyl sulfoxide (hereinafter abbreviated as DMSO) was diluted with Neurobasal/B27 at 10-fold of the final concentration. 20 μl/well of the dilution was added to and sufficiently mixed with the medium. The final DMSO concentration was 1% or less. Only DMSO was added to the control group.
The cells were cultured for three days after addition of the compound, and the total amount of the medium was collected. […]
(In general: An ELISA detects its analyte on a solid surface through an enzyme-linked reagent.)
Turning to `COc1cc(/C=C/c2nnc(C(C)c3ccc(F)cc3)[nH]2)ccc1-n1cnc(C)c1` (racemic) [Example 31, 3-[1-(4-fluorophenyl)ethyl]-5-{(E)-2-[3-methoxy-4-(4-methyl-1H-imidazol-1-yl)phenyl]vinyl}-4H-[1,2,4]triazole], the 50% inhibitory concentration (IC50) turned out to be 33 nM.
For `COc1cc(/C=C/c2nnc(C(C)c3ccc(F)cc3)[nH]2)ccc1-n1cnc(C)c1` (single isomer, unassigned) [Example 36, (+)-3-[1-(4-fluorophenyl)ethyl]-5-{(E)-2-[3-methoxy-4-(4-methyl-1H-imidazol-1-yl)phenyl]vinyl}-4H-[1,2,4]triazole] the value was 34 nM; for `COc1cc(/C=C/c2nc3n(n2)CCCC3c2ccc(F)cc2)ccc1-n1cnc(C)c1` (single isomer, unassigned) [Example 52, (−)-8-(4-fluorophenyl)-2-{(E)-2-[3-methoxy-4-(4-methyl-1H-imidazol-1-yl)phenyl]vinyl}-5,6,7,8-tetrahydro[1,2,4]triazolo[1,5-a]pyridine], 14 nM; for `COc1cc(/C=C/c2nc3n(n2)CCCC3c2cc(F)c(F)c(F)c2)ccc1-n1cnc(C)c1` (single isomer, unassigned) [Example 54, (−)-2-{(E)-2-[3-methoxy-4-(4-methyl-1H-imidazol-1-yl)phenyl]vinyl}-8-(3,4,5-trifluorophenyl)-5,6,7,8-tetrahydro[1,2,4]triazolo[1,5-a]pyridine], 14 nM.
For `COc1cc(/C=C(\F)c2nc3n(n2)CCC[C@@H]3c2cc(F)c(F)c(F)c2)ccc1-n1cnc(C)c1` (single isomer, unassigned) [Example 58, (−)-2-{(Z)-1-fluoro-2-[3-methoxy-4-(4-methyl-1H-imidazol-1-yl)phenyl]vinyl}-8-(3,4,5-trifluorophenyl)-5,6,7,8-tetrahydro[1,2,4]triazolo[1,5-a]pyridine] the value was 39 nM.
For the molecule `COc1cc(/C=C/c2nc3n(n2)CCCC3c2cc(F)c(F)c(F)c2)cnc1-n1cnc(C)c1` (single isomer, unassigned) [Example 60, (−)-2-{(E)-2-[5-methoxy-6-(4-methyl-1H-imidazol-1-yl)pyridin-3-yl]vinyl}-8-(3,4,5-trifluorophenyl)-5,6,7,8-tetrahydro[1,2,4]triazolo[1,5-a]pyridine], the IC50 was determined as 40 nM.
For `Cc1cn(-c2ccc(/C=C/c3nc4n(n3)CCCC4c3cc(F)c(F)c(F)c3)cc2F)cn1` (single isomer, unassigned) [Example 62, (−)-2-{(E)-2-[3-fluoro-4-(4-methyl-1H-imidazol-1-yl)phenyl]vinyl}-8-(3,4,5-trifluorophenyl)-5,6,7,8-tetrahydro[1,2,4]triazolo[1,5-a]pyridine] the value was 23 nM; for `COc1cc(/C=C/c2nc3n(n2)CCC[C@@H]3c2c(F)cc(F)cc2F)ccc1-n1cnc(C)c1` (single isomer, unassigned) [Example 64, (−)-2-{(E)-2-[3-methoxy-4-(4-methyl-1H-imidazol-1-yl)phenyl]vinyl}-8-(2,4,6-trifluorophenyl)-5,6,7,8-tetrahydro[1,2,4]triazolo[1,5-a]pyridine], 28 nM; for `COc1cc(/C=C/c2nc3n(n2)CCCC3(O)c2cc(F)c(F)c(F)c2)ccc1-n1cnc(C)c1` (single isomer, unassigned) [Example 66, (−)-2-{(E)-2-[3-methoxy-4-(4-methyl-1H-imidazol-1-yl)phenyl]vinyl}-8-(3,4,5-trifluorophenyl)-5,6,7,8-tetrahydro[1,2,4]triazolo[1,5-a]pyridin-8-ol], 20 nM.
Consider `COc1cc(/C=C/c2nc3n(n2)CCC[C@@H]3c2cc(F)c(F)c(F)c2)c(F)cc1-n1cnc(C)c1` (single isomer, unassigned) [Example 69, (−)-2-{(E)-2-[2-fluoro-5-methoxy-4-(4-methyl-1H-imidazol-1-yl)phenyl]vinyl}-8-(3,4,5-trifluorophenyl)-5,6,7,8-tetrahydro[1,2,4]triazolo[1,5-a]pyridine], for which the IC50 was 74 nM.
As for `COc1ccc([C@@H]2CCCn3nc(/C=C/c4ccc(-n5cnc(C)c5)c(OC)c4)nc32)cc1` (single isomer, unassigned) [Example 75, (−)-2-{(E)-2-[3-methoxy-4-(4-methyl-1H-imidazol-1-yl)phenyl]vinyl}-8-(4-methoxyphenyl)-5,6,7,8-tetrahydro-[1,2,4]triazolo[1,5-a]pyridine], the IC50 was 45 nM.
On to `COc1cc(/C=C/c2nc3n(n2)CCO[C@H]3c2cc(F)c(F)c(F)c2)ccc1-n1cnc(C)c1` (single isomer, unassigned) [Example 77, (−)-2-{(E)-2-[3-methoxy-4-(4-methyl-1H-imidazol-1-yl)phenyl]vinyl}-8-(3,4,5-trifluorophenyl)-5,6-dihydro-8H-[1,2,4]triazolo[5,1-c][1,4]oxazine], for which the concentration for half-maximal inhibition (IC50) worked out at 83 nM.
The result for `COc1cc(/C=C/c2nc3n(n2)CCC3c2cc(F)c(F)c(F)c2)ccc1-n1cnc(C)c1` (single isomer, unassigned) [Example 113, (−)-2-{(E)-2-[3-methoxy-4-(4-methyl-1H-imidazol-1-yl)phenyl]vinyl}-7-(3,4,5-trifluorophenyl)-6,7-dihydro-5H-pyrrolo[1,2-b][1,2,4]triazole] reads 32 nM; that for `COc1cc(/C=C/c2nc3n(n2)CCCC3c2cccc3ccccc23)ccc1-n1cnc(C)c1` (single isomer, unassigned) [Example 130, (+)-2-{(E)-2-[3-methoxy-4-(4-methyl-1H-imidazol-1-yl)phenyl]vinyl}-8-naphthalen-1-yl-5,6,7,8-tetrahydro[1,2,4]triazolo[1,5-a]pyridine], 13 nM; that for `COc1cc(/C=C/c2nc3n(n2)CCOC3c2ccc(OC(F)(F)F)cc2)ccc1-n1cnc(C)c1` (single isomer, unassigned) [Example 135, (−)-2-{(E)-2-[3-methoxy-4-(4-methyl-1H-imidazol-1-yl)phenyl]vinyl}-8-(4-trifluoromethoxyphenyl)-5,6-dihydro-8H-[1,2,4]triazolo[5,1-c][1,4]oxazine], 43 nM.
For `COc1cc(/C=C/c2nc3n(n2)CCC[C@@]3(O)c2cccc3ccccc23)ccc1-n1cnc(C)c1` (single isomer, unassigned) [Example 136, (−)-2-{(E)-2-[3-methoxy-4-(4-methyl-1H-imidazol-1-yl)phenyl]vinyl}-8-naphthalen-1-yl-5,6,7,8-tetrahydro[1,2,4]triazolo[1,5-a]pyridin-8-ol] the value was 24 nM; for `COc1cc(/C=C/c2nc3n(n2)CCO[C@H]3c2ccc(C)cc2)ccc1-n1cnc(C)c1` (single isomer, unassigned) [Example 138, (−)-2-{(E)-2-[3-methoxy-4-(4-methyl-1H-imidazol-1-yl)phenyl]vinyl}-8-p-tolyl-5,6-dihydro-8H-[1,2,4]triazolo[5,1-c][1,4]oxazine], 47 nM; for `COc1cc(/C=C/c2nc3n(n2)CCC[C@@H]3c2ccc(Cl)cc2)ccc1-n1cnc(C)c1` (single isomer, unassigned) [Example 149, (−)-8-(4-chlorophenyl)-2-{(E)-2-[3-methoxy-4-(4-methyl-1H-imidazol-1-yl)phenyl]vinyl}-5,6,7,8-tetrahydro[1,2,4]triazolo[1,5-a]pyridine], 21 nM.

A word on the IC50: it is the point on the concentration scale where inhibition reaches its midpoint.
